Results: PubChem BioAssay AID256 (DTP/NCI, 2004)
Where “and” joins values, the source holds several entries; their conditions need not be identical. Identical values can stand only once. Toxic doses and inconclusive results are not listed. The calls were made as follows: active = survival T/C of 150% or more; inactive = T/C below 125% in these data.

System: CD2F1 mice, L1210 leukemia ip, survival T/C
Assay: NCI In Vivo Anticancer Drug Screen. Data for tumor model L1210 Leukemia (intraperitoneal) in CD2F1 (CDF1) mice
Conditions: higher = longer survival
In short: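 Compound-dosed mice with transplantable tumor versus matched vehicle controls; endpoint ratio T/C reported.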

[1] = endpoint: mean survival time, dose: 12.5 mg/kg/injection, schedule: Q01DX005 (ip), vehicle: other
[2] = endpoint: mean survival time, dose: 25.0 mg/kg/injection, schedule: Q01DX005 (ip), vehicle: other
[3] = endpoint: mean survival time, dose: 50.0 mg/kg/injection, schedule: Q01DX005 (ip), vehicle: other
[4] = endpoint: mean survival time, dose: 100.0 mg/kg/injection, schedule: Q01DX005 (ip), vehicle: other
[5] = endpoint: mean survival time, dose: 100.0 mg/kg/injection, schedule: Q01DX009 (ip), vehicle: saline with Tween-80
[6] = endpoint: mean survival time, dose: 200.0 mg/kg/injection, schedule: Q01DX009 (ip), vehicle: saline with Tween-80
[7] = endpoint: mean survival time, dose: 400.0 mg/kg/injection, schedule: Q01DX009 (ip), vehicle: saline with Tween-80
[8] = endpoint: mean survival time, dose: 100.0 mg/kg/injection, schedule: Q04DX003 (ip), vehicle: saline with Tween-80
[9] = endpoint: mean survival time, dose: 200.0 mg/kg/injection, schedule: Q04DX003 (ip), vehicle: saline with Tween-80
[10] = endpoint: mean survival time, dose: 400.0 mg/kg/injection, schedule: Q04DX003 (ip), vehicle: saline with Tween-80
[11] = endpoint: mean survival time, dose: 25.0 mg/kg/injection, schedule: Q04DX002 (ip), vehicle: saline with Tween-80
[12] = endpoint: mean survival time, dose: 12.5 mg/kg/injection, schedule: Q01DX009 (ip), vehicle: saline with Tween-80
[13] = endpoint: mean survival time, dose: 25.0 mg/kg/injection, schedule: Q01DX009 (ip), vehicle: saline with Tween-80
[14] = endpoint: mean survival time, dose: 50.0 mg/kg/injection, schedule: Q01DX009 (ip), vehicle: saline with Tween-80
[15] = endpoint: mean survival time, dose: 12.5 mg/kg/injection, schedule: Q01DX009 (ip), vehicle: other
[16] = endpoint: mean survival time, dose: 25.0 mg/kg/injection, schedule: Q01DX009 (ip), vehicle: other
[17] = endpoint: mean survival time, dose: 50.0 mg/kg/injection, schedule: Q01DX009 (ip), vehicle: other
[18] = endpoint: mean survival time, dose: 100.0 mg/kg/injection, schedule: Q01DX009 (ip), vehicle: other
[19] = endpoint: mean survival time, dose: 200.0 mg/kg/injection, schedule: Q01DX009 (ip), vehicle: other

Measured: T/C

N#CC1=C(NC2OCC(O)C(O)C2O)CCC1 (stereo not given)
inactive: [1] 108 % of control | [2] 95 % of control | [3] 98 % of control | [4] 98 % of control | endpoint: mean survival time, dose: 200.0 mg/kg/injection, schedule: Q01DX005 (ip), vehicle: other 89 % of control

COc1ccc(-n2c(=S)[nH]c3ccc(C)cc3c2=O)cc1
inactive: [5] 97 % of control | [6] 100 % of control | [7] 91 % of control

Nc1nc(NCCc2ccccc2)c2ncn(C3OC(CO)C(O)C3O)c2n1 (stereo not given)
inactive: [1] 102 % of control | [2] 98 % of control | [3] 104 % of control | [4] 108 % of control

O=C([O][Sb]([O]C(=O)C(Cl)(Cl)Cl)([c]1ccccc1)([c]1ccccc1)[c]1ccccc1)C(Cl)(Cl)Cl
inactive: [8] 100 % of control | [9] 93 % of control | [10] 93 % of control

OC12CC3CC(CC(C3)C1)C2
inactive: endpoint: mean survival time, dose: 50.0 mg/kg/injection, schedule: Q01DX001 (ip), vehicle: saline with Tween-80 104 % of control | endpoint: mean survival time, dose: 100.0 mg/kg/injection, schedule: Q01DX001 (ip), vehicle: saline with Tween-80 116 % of control | endpoint: mean survival time, dose: 200.0 mg/kg/injection, schedule: Q01DX001 (ip), vehicle: saline with Tween-80 98 % of control

CCCCC(CC)COc1ccc(N=C(N)N=C(N)N)cc1 (stereo not given)
inactive: [11] 98 % of control | endpoint: mean survival time, dose: 50.0 mg/kg/injection, schedule: Q04DX002 (ip), vehicle: saline with Tween-80 102 % of control

CN(C)C(=O)Sc1c(S(=O)(=O)F)ccc(Cl)c1Cl
inactive: endpoint: mean survival time, dose: 100.0 mg/kg/injection, schedule: Q04DX002 (ip), vehicle: saline with Tween-80 96 % of control | endpoint: mean survival time, dose: 200.0 mg/kg/injection, schedule: Q04DX002 (ip), vehicle: saline with Tween-80 96 % of control | endpoint: mean survival time, dose: 400.0 mg/kg/injection, schedule: Q04DX002 (ip), vehicle: saline with Tween-80 100 % of control

N#Cc1n[nH]c(C2OC(CO)C(O)C2O)c1O (stereo not given)
inactive: endpoint: median survival time, dose: 9.38 mg/kg/injection, schedule: Q01DX005 (ip), vehicle: water 104 % of control | endpoint: median survival time, dose: 18.75 mg/kg/injection, schedule: Q01DX005 (ip), vehicle: water 106 % of control | endpoint: median survival time, dose: 39.5 mg/kg/injection, schedule: Q01DX005 (ip), vehicle: water 109 % of control | endpoint: median survival time, dose: 79.0 mg/kg/injection, schedule: Q01DX005 (ip), vehicle: water 109 % of control | endpoint: median survival time, dose: 158.0 mg/kg/injection, schedule: Q01DX005 (ip), vehicle: water 109 % of control

CNC(=O)Oc1ccc(N)cc1
inactive: endpoint: mean survival time, dose: 75.0 mg/kg/injection, schedule: Q01DX001 (ip), vehicle: saline 102 % of control

N#CCC(N)=S
inactive: [12] 112 % of control | [13] 106 % of control | [14] 96 % of control

CC(C)=[C-]N(C)C.[C-]#[O+].[C-]#[O+].[C-]#[O+].[C-]#[O+].[C-]#[O+].[Mn]
inactive: endpoint: mean survival time, dose: 12.5 mg/kg/injection, schedule: Q04DX002 (ip), vehicle: saline with Tween-80 110 % of control | [11] 103 % of control

N#CN=C([S-])[S-].N#CN=C([S-])[S-].[Cu]
inactive: endpoint: mean survival time, dose: 12.5 mg/kg/injection, schedule: Q04DX003 (ip), vehicle: acetone 93 % of control | endpoint: mean survival time, dose: 25.0 mg/kg/injection, schedule: Q04DX003 (ip), vehicle: acetone 94 % of control

Cc1cccc(C)c1NC(=S)N1CCC(CCCC2CCN(C(=S)Nc3c(C)cccc3C)CC2)CC1
inactive: [8] 105 % of control | [9] 96 % of control | [10] 96 % of control

Cc1ccc(S(=O)(=O)NCCN(CCNS(=O)(=O)c2ccc(C)cc2)S(=O)(=O)c2ccc(C)cc2)cc1
inactive: [15] 88 % of control | [16] 86 % of control | [17] 86 % of control | [18] 92 % of control | [19] 105 % of control

COc1ccc(CCN(C=O)CCc2ccc(OC)c(OC)c2)cc1OC
inactive: [15] 98 % of control | [16] 101 % of control | [17] 93 % of control | [18] 103 % of control | [19] 103 % of control

[Cl][Pt]([Cl])([Cl])[Cl]
inactive: endpoint: mean survival time, dose: 3.13 mg/kg/injection, schedule: Q01DX009 (ip), vehicle: saline 100 % of control | endpoint: mean survival time, dose: 3.13 mg/kg/injection, schedule: Q01DX009 (ip), vehicle: suspension in saline 101 % of control | endpoint: mean survival time, dose: 6.25 mg/kg/injection, schedule: Q01DX009 (ip), vehicle: saline 113 % of control | endpoint: mean survival time, dose: 6.25 mg/kg/injection, schedule: Q01DX009 (ip), vehicle: suspension in saline 107 % of control | endpoint: mean survival time, dose: 12.5 mg/kg/injection, schedule: Q01DX009 (ip), vehicle: saline 121 % of control | endpoint: mean survival time, dose: 12.5 mg/kg/injection, schedule: Q01DX009 (ip), vehicle: suspension in saline 121 % of control | endpoint: mean survival time, dose: 25.0 mg/kg/injection, schedule: Q01DX009 (ip), vehicle: saline 113 % of control and 102 % of control | endpoint: mean survival time, dose: 25.0 mg/kg/injection, schedule: Q01DX009 (ip), vehicle: suspension in saline 124 % of control | endpoint: mean survival time, dose: 25.0 mg/kg/injection, schedule: Q04DX003 (ip), vehicle: saline 108 % of control and 107 % of control | endpoint: mean survival time, dose: 50.0 mg/kg/injection, schedule: Q04DX003 (ip), vehicle: saline 97 % of control and 105 % of control

O=C1C2C(C(=O)N1c1ccc(F)c([N+](=O)[O-])c1)C1(Cl)C(Cl)=C(Cl)C2(Cl)C1(Cl)Cl (stereo not given)
inactive: [14] 108 % of control | [5] 116 % of control | [6] 111 % of control

CCCCCCCCOC(=O)c1c(Cl)c(Cl)c(C(=O)OCCCCCCCC)c(Cl)c1Cl
inactive: [5] 98 % of control | [8] 97 % of control | [6] 102 % of control | [9] 97 % of control | [7] 96 % of control | [10] 97 % of control

COC(=O)CCN(C(=O)c1ccccc1)c1ccccc1C(=O)OC
inactive: endpoint: mean survival time, dose: 75.0 mg/kg/injection, schedule: Q04DX003 (ip), vehicle: saline 100 % of control | endpoint: mean survival time, dose: 150.0 mg/kg/injection, schedule: Q04DX003 (ip), vehicle: saline 94 % of control | endpoint: mean survival time, dose: 300.0 mg/kg/injection, schedule: Q04DX003 (ip), vehicle: saline 100 % of control

O=c1[nH]cnc2nn(C3OC(CO)C(O)C3O)nc12 (stereo not given)
inactive: endpoint: median survival time, dose: 12.5 mg/kg/injection, schedule: Q01DX005 (ip), vehicle: saline 94 % of control | endpoint: median survival time, dose: 25.0 mg/kg/injection, schedule: Q01DX005 (ip), vehicle: saline 94 % of control | endpoint: median survival time, dose: 50.0 mg/kg/injection, schedule: Q01DX005 (ip), vehicle: saline 91 % of control | endpoint: median survival time, dose: 100.0 mg/kg/injection, schedule: Q01DX005 (ip), vehicle: saline 97 % of control and 103 % of control | endpoint: median survival time, dose: 200.0 mg/kg/injection, schedule: Q01DX005 (ip), vehicle: saline 101 % of control and 107 % of control | endpoint: median survival time, dose: 400.0 mg/kg/injection, schedule: Q01DX005 (ip), vehicle: saline 103 % of control

O=C(Nc1ccc(S(=O)(=O)N2CCCCC2)cc1)OC(c1ccccc1)c1ccccc1
inactive: endpoint: mean survival time, dose: 5.0 mg/kg/injection, schedule: Q01DX001 (ip), vehicle: other 103 % of control | endpoint: mean survival time, dose: 10.0 mg/kg/injection, schedule: Q01DX001 (ip), vehicle: other 100 % of control | endpoint: mean survival time, dose: 20.0 mg/kg/injection, schedule: Q01DX001 (ip), vehicle: other 93 % of control | endpoint: mean survival time, dose: 40.0 mg/kg/injection, schedule: Q01DX001 (ip), vehicle: other 100 % of control | endpoint: mean survival time, dose: 80.0 mg/kg/injection, schedule: Q01DX001 (ip), vehicle: other 102 % of control

CCOc1ccccc1C1N(C)CCCN1C
inactive: endpoint: mean survival time, dose: 6.25 mg/kg/injection, schedule: Q01DX009 (ip), vehicle: saline with Tween-80 105 % of control | [12] 100 % of control | [13] 110 % of control
